The results in this text go back to patent US20250236589A1, “THERAPEUTIC PHENETHYLAMINE COMPOSITIONS AND METHODS OF USE” (Cybin IRL Limited, priority 2022, published 2025).

The term Ki denotes a measure of affinity in units of concentration, obtained from inhibition or displacement. Higher therefore signals a looser hold on the target. As a reminder, the EC50 is the concentration needed to bring the measured effect to its halfway point. In general, AUC(0-inf) refers to the area under the concentration-time curve extrapolated to infinity. A higher AUC(0-inf) goes with high exposure. The AUC(0-t) is exposure summed from dosing to a finite time, without extrapolation to infinity. High values mean more exposure, low ones less exposure. As usually defined, the Cmax is the highest concentration seen after dosing. As usually defined, the MRT inf is a mean duration of stay, worked out from the concentration-time curve. In general, Tmax refers to the time from dosing to the highest level. In general, clearance refers to the rate of elimination divided by the concentration.

Data set [1] deals with 5-HT2A receptor (Homo sapiens (Human), UniProt P28223). Put plainly: 5-HT2A radioligand binding ([125I](±)DOI).
For data set [2], the target named is 5-HT1A receptors (Homo sapiens (Human), UniProt P08908). The experiment in a line: 5-HT1A radioligand binding ([3H]8-OH-DPAT). How it is done:
In another series of 5-HT1A,2A,2B radioligand competition binding assays, the conditions were as follows: For 5-HT1A assays, cell membrane homogenates (˜30 μg protein) derived from HEK-293 cells expressing human 5-HT1ARs were incubated with 0.5 nM [^3H]8-hydroxy-2-(di-n-propylamino)tetralin ([^3H]8-OH-DPAT) for 60 min at room temperature in the presence or absence of the test article. Non-specific binding was determined in the presence of 10 μM 8-OH-DPAT. Samples were then analyzed as described above, with only immaterial differences. […] Samples were then analyzed as described above.

The nature of data set [3]: Plasma and brain concentrations after dosing in mice (screening). In kind it is in vivo, mouse. As to conditions: for concentration at 160 min: sc, mice, 3 mg/kg s.c.
Data set [4] can be described thus: In vitro liver microsome stability (DLM). It is filed as in vitro ADME. As to conditions: dog, dog liver microsomes, 0.5 mg/mL microsomes, NADPH, read-out: DLM, t1/2. How it is done:
In vitro stability was determined in Human (HLM), Rat (RLM), Mouse (MsLM), and dog (DLM) Liver Microsomes. All liver microsomes were purchased from a commercial supplier (e.g. XenoTech). The reaction mixture, minus NADPH, was prepared as described below. The test compound was added into the reaction mixture at a final concentration of 1 μM or co-dosed with their deuterated analog(s) at 1 μM each. The control compound, testosterone, was run simultaneously with the test compound in a separate reaction. The reaction mixture (without cofactor) was equilibrated in a shaking water bath at 37° C. for 5 minutes. The reaction was initiated by the addition of the cofactor, and the mixture was incubated in a shaking water bath at 37° C. Aliquots (150 μL) were withdrawn at 0, 5, 10, 20, 30, 60, and 120 minutes. Test compound and testosterone samples were immediately combined with 150 μL of ice-cold acetonitrile (ACN) containing 0.1% formic acid and internal standard to terminate the reaction. The samples were then mixed and centrifuged to precipitate proteins. All samples were assayed by LC-MS/MS using electrospray ionization. […] Half-lives were calculated using GraphPad software, fitting to a single-phase exponential decay equation.
For orientation: Liver microsomes are a subcellular fraction often used to study metabolism.

Data set [5] addresses MAO-A (Homo sapiens (Human), UniProt P21397). Put plainly: Recombinant human MAO-A activity (stability). In kind it is in vitro ADME. Particulars: hrMAO 0.02 mg/mL, read-out: MAO-A, t1/2. As for the experimental part:
hrMAO-A and MAO control were purchased from XenoTech. The reaction mixture was prepared as described below. The test compound was added into the reaction mixture at a final concentration of 1 μM or co-dosed with their deuterated analog at 1 μM each. The positive control kynuramine (25 μM) was run simultaneously with the test compound in a separate reaction. The reaction mixture (without test compounds or kynuramine) was equilibrated in a shaking water bath at 37° C. for 5 minutes. The reaction was initiated by the addition of the test compound or kynuramine, and the mixture was incubated in a shaking water bath at 37° C. Aliquots (150 μL) of the test compound reaction mixture were withdrawn at 0, 5, 10, 20, 30, 60, and 120 minutes. Aliquots (150 μL) of the positive control reaction mixture were withdrawn at 0 and 30 minutes. Test compound(s) and kynuramine samples were immediately combined with 150 μL of ice-cold 100% acetonitrile containing 0.1% formic acid and internal standard (0.2 μM metoprolol) to terminate the reaction. The samples were then mixed and centrifuged to precipitate proteins. All samples were assayed by LC-MS/MS. The peak area response ratio (PARR) of analyte to internal standard at each time point was compared to the PARR at time 0 to determine the percent remaining at each time point. Half-lives were calculated using GraphPad software, fitting to a single-phase exponential decay equation.

Data set [6] addresses T1, human alpha2A receptor (Homo sapiens (Human), UniProt P08913). Put plainly: alpha2A receptor binding ([3H]rauwolscine).
In data set [7] the target is T1, human alpha2A receptor. The experiment in a line: alpha2A receptor function. In kind it is cell-based.
Data set [8] is described as follows: PK in Sprague-Dawley rats (plasma, brain, CSF). In kind it is in vivo, rat. How it is done:
In another rat PK study, plasma, brain, and cerebrospinal fluid (CSF) distribution of I-1 was evaluated in Sprague-Dawley male rats after intravenous (IV) administration at 1 mg/kg. Plasma, brain, and CSF samples were collected at specified time points up to 8 hr postdose after single dose administration of I-1. Blood samples were collected via cardiac puncture and the animals were euthanized via CO2 inhalation after blood samples were collected. The CSF samples were collected via cisterna magna puncture with the brain tissue extracted after decapitation (N=4 animals per time point). The concentrations of compound I-1 in plasma, with K2EDTA as the anticoagulant, brain tissue, and CSF were determined by LC-MS/MS (LLOQ, 0.3 ng/mL). PK parameters for plasma, CSF, and brain tissue were calculated as described above.

In data set [9] the test system is Adrenergic α2 (subtype not identified) (rat cortex). The experiment in a line: Off-target screen, radioligand displacement at 10 μM. In kind it is binding. Particulars: antagonist radioligand. For orientation: Displacement assays read how much labelled ligand stays bound in the presence of the test substance.
Data set [10] concerns 5-HT7 (h) (subtype “a” or “b” not specified). The data set is described as above. Particulars: agonist radioligand. It is filed as binding, human.
Where [11] appears, read: male, Sprague-Dawley, rat, CSF, IV 1 mg/kg.
[12] abbreviates: male, Sprague-Dawley, rat, brain, IV 1 mg/kg.
[13] abbreviates: male, Sprague-Dawley, rat, plasma, IV 1 mg/kg.

Like-named read-outs stand apart in the source and are kept apart here.

T1 sequence (P08913 whole entry): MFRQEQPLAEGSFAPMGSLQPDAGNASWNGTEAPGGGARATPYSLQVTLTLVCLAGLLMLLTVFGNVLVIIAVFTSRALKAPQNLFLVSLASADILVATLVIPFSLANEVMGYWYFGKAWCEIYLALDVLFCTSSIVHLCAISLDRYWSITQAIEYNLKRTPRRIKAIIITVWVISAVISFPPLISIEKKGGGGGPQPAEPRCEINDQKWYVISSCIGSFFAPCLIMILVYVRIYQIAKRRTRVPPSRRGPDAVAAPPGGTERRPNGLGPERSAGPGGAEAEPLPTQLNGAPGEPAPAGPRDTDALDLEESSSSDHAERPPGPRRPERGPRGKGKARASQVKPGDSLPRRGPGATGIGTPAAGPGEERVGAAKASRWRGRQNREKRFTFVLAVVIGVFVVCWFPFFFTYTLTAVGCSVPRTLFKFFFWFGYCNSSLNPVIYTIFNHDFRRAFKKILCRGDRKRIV
MAO-A, sequence (P21397 whole entry, looked up): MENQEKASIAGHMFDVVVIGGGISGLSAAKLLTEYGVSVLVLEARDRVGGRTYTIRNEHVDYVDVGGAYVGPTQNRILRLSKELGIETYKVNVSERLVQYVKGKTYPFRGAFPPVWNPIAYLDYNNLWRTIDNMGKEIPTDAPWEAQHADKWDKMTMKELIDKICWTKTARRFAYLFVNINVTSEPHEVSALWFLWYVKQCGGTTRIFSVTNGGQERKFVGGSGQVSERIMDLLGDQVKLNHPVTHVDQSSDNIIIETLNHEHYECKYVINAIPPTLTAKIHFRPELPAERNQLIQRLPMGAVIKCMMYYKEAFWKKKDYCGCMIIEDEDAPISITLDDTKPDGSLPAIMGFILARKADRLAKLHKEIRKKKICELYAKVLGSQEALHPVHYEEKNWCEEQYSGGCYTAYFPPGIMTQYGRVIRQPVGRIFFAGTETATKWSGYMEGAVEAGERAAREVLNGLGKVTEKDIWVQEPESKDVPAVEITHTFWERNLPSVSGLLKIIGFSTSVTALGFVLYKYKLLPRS

Turning to `COc1cc(SC(F)(F)F)c(OC)cc1CCN` [Compound I-1, 2-(2,5-dimethoxy-4-((trifluoromethyl)thio)phenyl)ethan-1-amine], the figures for the inhibition at 10 µM in [1] and in [9] were > 80% and 97.3%, respectively. In [1] (Ki, [125I]DOI), the “binding selectivity for 5-HT2A over 5-HT2B” value is recorded as ~19 fold. The Ki in data set [1] (radioligand [125I](±)DOI) was determined as 0.35 nM; in [6], 66 nM. Further, the inhibition at 0.1 µM in data set [2] (100 nM) was found to be 55%. Further, the inhibition at 1 µM in data set [2] (1 uM) is 90%. For the same compound, the “brain/plasma ratio, 160 min” value in data set [3] (160 min after 3 mg/kg) was determined as 32.4. Also, the concentration at 160 min came out at 9.6 µM in [3] (mouse, brain, read-out: Brain, 160 min) and 0.3 µM in data set [3] (mouse, plasma, read-out: Plasma, 160 min). Besides, in data set [3] (mouse, brain/plasma, subcutaneous, 3 mg/kg, 160 min after 3 mg/kg, read-out: brain/plasma ratio, 160 min), the Kp at 160 min is 24 to 32. For the same compound, the half-life at 1 μM in data set [4] and in [5] was > 2 h in each case. Besides, in [7], the EC50 worked out at 165 nM. Moreover, the Tlast in data set [8] (CSF, IV 1 mg/kg) was determined as 6 h; in [8] (brain, IV 1 mg/kg), 8 h; in data set [8] (plasma, IV 1 mg/kg), 8 h. Moreover, the “CSF concentrations as share of brain concentrations” value in data set [8] (IV 1 mg/kg) worked out at 1.6%. Besides, in data set [8] (hepatic blood flow 3.31 L/hr/kg), the “total systemic clearance relative to total hepatic blood flow” value was “approximately 1.4 fold”. In data set [8] (male, Sprague-Dawley, rat, CSF/plasma, IV 1 mg/kg, read-out: CSF concentrations as share of plasma), the Kp worked out at 0.2. Besides, the AUC(0-inf) amounted to 51.4 ng·h/mL in data set [8] (setting [11]), 3280 ng·h/mL in data set [8] (setting [12]) and 210 ng·h/mL in data set [8] (setting [13]). Further, the exposure AUC(0-t) in [8] (setting [11]) came to 49.9 ng·h/mL; in data set [8] (setting [12]) it was 3220 ng·h/mL; in data set [8] (setting [13]) it was 207 ng·h/mL. The peak concentration (Cmax) is 48.7 ng/mL in [8] (setting [11]), 1490 ng/mL in data set [8] (setting [12]) and 250 ng/mL in [8] (setting [13]). In addition, the mean residence time MRT inf was 1.51 h in data set [8] (setting [11]), 1.98 h in data set [8] (setting [12]) and 1.19 h in data set [8] (setting [13]). The Tmax worked out at 0.083 h in data set [8] (setting [11]), 0.25 h in data set [8] (setting [12]) and 0.083 h in data set [8] (setting [13]). Besides, the values for the half-life in data set [8] (setting [11]), in data set [8] (setting [12]) and in [8] (setting [13]) were 1.26 h, 1.34 h and 1.53 h, respectively. The C0 in [8] (setting [13]) came out at 330 ng/mL. The compound also gave a clearance in data set [8] (setting [13]) of 79.5 mL/min/kg. In addition, the Vd in data set [8] (male, Sprague-Dawley, rat, plasma, IV 1 mg/kg, read-out: Vss) worked out at 5.67 L/kg. Also, the “volume of distribution relative to total body water” value in data set [8] (total body water 0.7 L/kg) is recorded as “approximately 8.1 fold”.
In the case of `COc1cc(CC(C)N)c(OC)cc1I` (racemic) [DOI, (±)-2,5-dimethoxy-4-iodoamphetamine, reference compound], the “inhibition at 10 µM” value in data set [10] is on record as 58.4% inhibition at 10 μM.
